Measurements from patent US20200038399A1, “FORMULATIONS, METHODS, KIT, AND DOSAGE FORMS FOR TREATING BACTERIAL INFECTION” (Motif BioSciences Inc., priority 2016, published 2020).
Like-named read-outs stand apart in the source and are kept apart here. Positions of bridges follow the written chain, without caps; N, C: chain ends. Non-standard residues stand in square brackets, D forms with d. Residues, ends and D or L forms follow the SMILES beside them. *: point of attachment. Ileψ(thiazoline)Cys = CC[C@H](C)[C@H](N)C1=N[C@H](C(=O)*)CS1; dOrn = NCCC[C@@H](N)C(=O)O

Tests used:
[1] = test system: S. aureus 101; assay: MIC determination; assay type: cell-based, Staphylococcus aureus
How it was run: (§1)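 K. pneumoniae and S. aureus grew in cation-adjusted Mueller-Hinton broth in ambient air. H. influenzae used Haemophilus test medium (MHB, yeast extract, NAD, hematin) and M. catarrhalis used Brain Heart Infusion, both under 5% CO2.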

[2] = test system: S. pneumoniae 1/1; assay: MIC determination; assay type: cell-based, Streptococcus pneumoniae; conditions: Streptococcus pneumoniae, read-out: Minimum inhibitory concentrations (MIC)
[3] = test system: Haemophilus influenzae ATCC 49766; assay: MIC determination; assay type: cell-based; conditions: Haemophilus influenzae, read-out: Minimum inhibitory concentrations (MIC)
How it was run: as §1

[4] = test system: Klebsiella pneumoniae ATCC 33495; assay: MIC determination; assay type: cell-based; conditions: Klebsiella pneumoniae, read-out: Minimum inhibitory concentrations (MIC)
How it was run: as §1

[5] = test system: Moraxella catarrhalis RA 21; assay: MIC determination; assay type: cell-based; conditions: Moraxella catarrhalis, read-out: Minimum inhibitory concentrations (MIC)
How it was run: as §1

[6] = test system: Staphylococcus aureus ATCC 25923; assay: MIC determination; assay type: cell-based; conditions: Staphylococcus aureus, read-out: Minimum inhibitory concentrations (MIC)
How it was run: as §1

[7] = test system: Streptococcus pneumoniae ATCC 49619; assay: MIC determination; assay type: cell-based; conditions: Streptococcus pneumoniae, read-out: Minimum inhibitory concentrations (MIC)
[8] = test system: Haemophilus influenzae ATCC 49766; assay: checkerboard synergy assay with iclaprim; assay type: cell-based; conditions: antibiotic in combination with iclaprim; H. influenzae 49766
[9] = test system: Klebsiella pneumoniae ATCC 33495; assay: checkerboard synergy assay with iclaprim; assay type: cell-based; conditions: antibiotic in combination with iclaprim; K. pneumoniae 33495
[10] = test system: Moraxella catarrhalis RA 21; assay: checkerboard synergy assay with iclaprim; assay type: cell-based; conditions: antibiotic in combination with iclaprim; M. catarrhalis RA 21
[11] = test system: Staphylococcus aureus, Streptococcus pneumoniae, Haemophilus influenzae, Moraxella catarrhalis and Klebsiella pneumoniae; assay: checkerboard synergy assay with iclaprim, strains pooled; assay type: cell-based; conditions: checkerboard experiments, all strains
Procedure: The synergistic potential of iclaprim against Gram-positive and Gram-negative bacteria was determined using the checkerboard assay as described in Eliopoulos GM and Moellering, Jr. RC (1991), Antimicrobial combinations, pp. 432-492, in V. Lorian (ed.), Antibiotics in laboratory medicine, 3rd Ed., The Williams & Wilkins Co., Baltimore, the entire disclosure of which is herein incorporated by reference, allowing multiple test concentrations of iclaprim to be assayed in the presence of various concentrations of the other antibiotic in microtiter plates. The same growth media and conditions were used as described in 3.2 below.
Two different dilutions were used for iclaprim depending on the MIC determined for the bacterium. […] Iclaprim and the other antibiotic being tested were also dispensed alone in the last row and in the last column, respectively, as controls.
The Fractional Inhibitory Concentrations (FIC) for each added agent were calculated and used to determine the sum of FIC (ΣFIC) indicative of the synergistic potential of a given combination as described in Veyssier P. (1999), Inhibiteurs de la dihydrofolate reductase, nitrohétérocycles (furanes) et 8-hydroxyquinoleines, pp. 995-1027, in A. Bryskier (ed.), Antibiotiques agents antibatériens et antifongiques, 1st Ed., Ellipses Edition Marketing SA, Paris, the entire disclosure of which is herein incorporated by reference. Synergy was defined whereby the ΣFIC was <0.5, indifference (no synergy nor antagonism) whereby ΣFIC was ≥0.5 but ≤4, and antagonism whereby ΣFIC was >4. Additivity as a special form of indifference was defined whereby the ΣFIC was ≥0.5 but <1, for example as described in Stevens, D L et al. (1998), In vitro antimicrobial effects of various combinations of penicillin and clindamycin against four strains of Streptococcus pyogenes, J. Antimicrob. Chemother. 42: 1266-1268, the entire disclosure of which is herein incorporated by reference.

[12] = test system: Staphylococcus aureus ATCC 25923; assay: checkerboard synergy assay with iclaprim; assay type: cell-based; conditions: antibiotic in combination with iclaprim; S. aureus 25923
[13] = test system: Streptococcus pneumoniae ATCC 49619; assay: checkerboard synergy assay with iclaprim; assay type: cell-based; conditions: antibiotic in combination with iclaprim; S. pneumoniae 49619
[14] = test system: S. aureus 101; assay: checkerboard synergy assay with iclaprim; assay type: cell-based, Staphylococcus aureus; conditions: antibiotic in combination with iclaprim
[15] = test system: S. pneumoniae 1/1; assay: checkerboard synergy assay with iclaprim; assay type: cell-based, Streptococcus pneumoniae; conditions: antibiotic in combination with iclaprim
[16] = Staphylococcus aureus, 101, 18 h; read-out: Minimum inhibitory concentrations (MIC)
[17] = S. pneumoniae 1/1, 18 hours at 37° C., 5% CO2
[18] = ATCC33495, K. pneumonia 33495, 18 hours at 37° C.
[19] = RA21, M. catarrhalis RA 21, 18 hours at 37° C., 5% CO2
[20] = ATCC25923, S. aureus 25923, 18 hours at 37° C.
[21] = ATCC49619, S. pneumoniae 49619, 18 hours at 37° C., 5% CO2
[22] = ATCC49766, H. Influenza 49766, 18 hours at 37° C., 5% CO2

Row | Structure (SMILES) | MIC [1, 16] | MIC [2, 17] | MIC [4, 18] | MIC [5, 19] | MIC [6, 20] | MIC [7, 21] | Con (Conclusion) [8] | Con (Conclusion) [9] | Con (Conclusion) [10] | Σ FIC [8] | Σ FIC [9] | Σ FIC [10] | Σ FIC [12] | Σ FIC [13] | Σ FIC [14] | Σ FIC [15] | MIC [3, 22] | also measured
1 | Cc1cc(NS(=O)(=O)c2ccc(N)cc2)no1 [Sulfamethoxazole, N1-(5-methyl-3-isoxazolyl)sulfanilamide] | > 128 µg/mL | > 128 µg/mL | > 128 µg/mL | > 128 µg/mL | > 128 µg/mL | > 128 µg/mL | Syn (Synergy (Syn)) | Ad (Additivity (Ad)) | Syn (Synergy (Syn)) |  |  |  |  |  |  |  |  | MIC ([3]; ATCC49766, 18 h): 128 µg/mL; synergistic potential with iclaprim [11]: highly synergistic
2 | CN[C@H](CC(C)C)C(=O)N[C@H]1C(=O)N[C@@H](CC(N)=O)C(=O)N[C@H]2C(=O)N[C@H]3C(=O)N[C@H](C(=O)N[C@H](C(=O)O)c4cc(O)cc(O)c4-c4cc3ccc4O)[C@H](O)c3ccc(c(Cl)c3)Oc3cc2cc(c3O[C@@H]2O[C@H](CO)[C@@H](O)[C@H](O)[C@H]2O[C@H]2C[C@](C)(N)[C@H](O)[C@H](C)O2)Oc2ccc(cc2Cl)[C@H]1O [Vancomycin] |  |  |  |  |  |  | Ind (Indifference (Ind)) | Ind (Indifference (Ind)) | Ad (Additivity (Ad)) | 1.00-1.25 | 1.01-1.50 | 0.75-1.13 | 1.03-1.50 | 1.00-1.25 | 0.75-1.25 | 0.56-1.03 |  | MIC ([1]; Staphylococcus aureus, 101, 18 h, read-out: Minimum inhibitory concentrations (MIC)): 2 µg/mL; MIC ([2]; 1/1, 18 h): 0.5 µg/mL; MIC ([3]; ATCC49766, 18 h): 128 µg/mL; MIC ([4]; ATCC33495, 18 h): > 128 µg/mL; MIC ([5]; RA21, 18 h): > 128 µg/mL; MIC ([6]; ATCC25923, 18 h): 2 µg/mL; MIC ([7]; ATCC49619, 18 h): 0.5 µg/mL
3 | Cc1onc(-c2ccccc2Cl)c1C(=O)N[C@@H]1C(=O)N2[C@@H]1SC(C)(C)[C@@H]2C(=O)O [Cloxacillin] | 2 µg/mL | 64 µg/mL | > 128 µg/mL | 64 µg/mL | 0.25 µg/mL | 8 µg/mL | Ind (Indifference (Ind)) | Ind (Indifference (Ind)) | Ad (Additivity (Ad)) | 1.13-1.50 | 1.01-2.50 | 0.53-1.00 | 0.99-1.25 | 1.00-1.25 | 1.00-1.25 | 1.00-1.25 | 16 µg/mL | 
4 | C[C@@H]1O[C@@H]1P(=O)(O)O [Fosfomycin] | 64 µg/mL | 32 µg/mL | > 128 µg/mL | 128 µg/mL | 8 µg/mL | 32 µg/mL | Ad (Additivity (Ad)) | Ind (Indifference (Ind)) | Ind (Indifference (Ind)) | 0.74-1.12 | 1.01-1.50 | 1.02-1.50 | 1.13-1.50 | 1.06-1.50 | 1.03-1.50 | 1.00-1.06 | 0.062 µg/mL | 
5 | CC[C@H]1OC(=O)[C@H](C)[C@@H](O[C@H]2C[C@@](C)(OC)[C@@H](O)[C@H](C)O2)[C@H](C)[C@@H](O[C@@H]2O[C@H](C)C[C@H](N(C)C)[C@H]2O)[C@](C)(O)C[C@@H](C)C(=O)[C@H](C)[C@@H](O)[C@]1(C)O [Erythromycin] | > 128 µg/mL | 0.125 µg/mL | 128 µg/mL | 0.125 µg/mL | 0.5 µg/mL | 0.125 µg/mL | Ad (Additivity (Ad)) | Ad (Additivity (Ad)) | Ind (Indifference (Ind)) | 0.75-1.00 |  | 1.06-1.50 | 1.13-1.50 | 1.06-1.50 | 1.01-1.50 | 1.06-1.50 | 8 µg/mL | 
6 | CC[C@H](C)[C@H](N)C1=N[C@H](C(=O)N[C@@H](CC(C)C)C(=O)N[C@H](CCC(=O)O)C(=O)N[C@H](C(=O)N[C@H]2CCCCNC(=O)[C@H](CC(N)=O)NC(=O)[C@@H](CC(=O)O)NC(=O)[C@H](Cc3cnc[nH]3)NC(=O)[C@@H](Cc3ccccc3)NC(=O)[C@H]([C@@H](C)CC)NC(=O)[C@@H](CCCN)NC2=O)[C@@H](C)CC)CS1 [Bacitracin] ({Ileψ(thiazoline)Cys}-L[dE]IK[dOrn]I[dF]H[dD]N; lactam 4-C) | 32 µg/mL | 8 µg/mL | > 128 µg/mL | 8 µg/mL | > 128 µg/mL | 32 µg/mL | Ind (Indifference (Ind)) | Ind (Indifference (Ind)) | Ad (Additivity (Ad)) | 1.01-1.50 | 1.01-1.50 | 0.56-1.25 | 0.74-1.13 | 0.75-1.13 | 0.75-1.13 | 0.51-1.06 | > 128 µg/mL | 
7 | CCn1cc(C(=O)O)c(=O)c2cc(F)c(N3CCNCC3)cc21 [Norfloxacin] | 128 µg/mL | 4 µg/mL | 2 µg/mL | 0.5 µg/mL | 1 µg/mL | 4 µg/mL | Ad (Additivity (Ad)) | Ad (Additivity (Ad)) | Ad (Additivity (Ad)) | 0.52-1.25 | 0.75-1.13 | 0.56-1.13 | 0.56-1.25 | 1.00-1.25 | 1.02-1.50 | 1.13-1.50 | 0.125 µg/mL | 
8 | CCN1CCN(C(=O)N[C@@H](C(=O)N[C@@H]2C(=O)N3[C@@H]2SC(C)(C)[C@@H]3C(=O)O)c2ccccc2)C(=O)C1=O [Piperacillin] | > 128 µg/mL | 8 µg/mL | 32 µg/mL | 0.25 µg/mL | 0.5 µg/mL | 2 µg/mL | Ad (Additivity (Ad)) | Ad (Additivity (Ad)) | Ind (Indifference (Ind)) | 0.54-1.25 | 0.53-1.25 | 1.03-1.50 | 1.06-1.50 | 1.02-1.50 | 1.01-1.50 | 0.63-1.13 | 0.031 µg/mL | 
